Test results as given in ChEMBL document CHEMBL3608256, “Strongylophorines, new protein tyrosine phosphatase 1B inhibitors, from the marine sponge Strongylophora strongilata collected at Iriomote Island” (Bioorg Med Chem Lett, 2015).

Biological target: T1, Tyrosine-protein phosphatase non-receptor type 1 (Homo sapiens, UniProt P18031)
T1 sequence (P18031 whole entry): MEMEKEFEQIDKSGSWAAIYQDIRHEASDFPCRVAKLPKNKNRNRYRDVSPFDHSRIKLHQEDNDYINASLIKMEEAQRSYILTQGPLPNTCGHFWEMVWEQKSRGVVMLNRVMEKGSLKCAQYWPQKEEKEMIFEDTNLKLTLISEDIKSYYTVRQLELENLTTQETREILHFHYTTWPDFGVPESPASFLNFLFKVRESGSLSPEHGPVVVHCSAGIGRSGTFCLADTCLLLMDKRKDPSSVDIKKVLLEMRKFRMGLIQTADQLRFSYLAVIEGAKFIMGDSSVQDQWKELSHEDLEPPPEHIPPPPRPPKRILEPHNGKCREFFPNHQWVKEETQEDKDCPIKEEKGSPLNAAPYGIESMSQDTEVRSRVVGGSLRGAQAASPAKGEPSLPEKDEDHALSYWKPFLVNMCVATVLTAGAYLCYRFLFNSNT
Assay: Inhibition of PTP1B (unknown origin) pre-incubated for 10 mins before addition of p-nitrophenyl phosphate substrate and measured 30 mins post substrate addition

Row | Compound | IC50 [µM]
1 | CCO[C@H]1OC[C@]23CCC[C@]1(C)[C@@H]2CC[C@]1(C)[C@@H]3CC[C@](C)(O)[C@H]1Cc1cc(O)ccc1O | 8.7
2 | C[C@]1(CO)CCC[C@@]2(CO)[C@H]1CC[C@]1(C)[C@@H]2CC[C@]2(C)Oc3ccc(O)cc3C[C@@H]12 | 14.8
3 | C[C@@]12CC[C@@H]3[C@]4(CCC[C@@]3(C)C(=O)OC4)[C@H]1CC[C@]1(C)Oc3ccc(O)cc3C[C@@H]21 [strongylophorine-2] | > 24.4
4 | C[C@@]12CC[C@@H]3[C@]4(CCC[C@]3(C)C(=O)OC4)[C@H]1CC[C@](C)(O)[C@H]2Cc1cc(O)ccc1O [strongylophorine-8] | 21.2

Now from value to compound:

Row | IC50 [µM] | Compound
5 | 8.5 | CO[C@H]1OC[C@]23CCC[C@]1(C)[C@@H]2CC[C@]1(C)[C@@H]3CC[C@]2(C)Oc3ccccc3C[C@@H]12
6 | 11.9 | C[C@]12CCC[C@@]3(CO[C@@H]1O)[C@H]2CC[C@]1(C)[C@@H]3CC[C@]2(C)Oc3ccc(O)cc3C[C@@H]12
7 | 9 | C[C@]12CCC[C@](C)(C(=O)O)[C@@H]1CC[C@]1(C)[C@@H]2CC[C@]2(C)Oc3ccc(O)cc3C[C@@H]12 [Strongylophorin-3]
